Assay results taken from publication PMC11840605, “Crystallographic and Thermodynamic Evidence of Negative Coupling in the Flavin-Dependent Tryptophan Halogenases AbeH and BorH” (ACS Omega, 2025).
Values joined by “and” are separate entries in the source; they are usually repeats but may differ in a detail not shown here. Equal entries are not always repeated. “Also recorded” adds a separate entry of the source.

Experiments:
[1] = molecular target: T1, BorH (uncultured bacterium, UniProt M9QSI0); conditions: previously shown; cited from earlier work
T1 sequence (M9QSI0 1-529): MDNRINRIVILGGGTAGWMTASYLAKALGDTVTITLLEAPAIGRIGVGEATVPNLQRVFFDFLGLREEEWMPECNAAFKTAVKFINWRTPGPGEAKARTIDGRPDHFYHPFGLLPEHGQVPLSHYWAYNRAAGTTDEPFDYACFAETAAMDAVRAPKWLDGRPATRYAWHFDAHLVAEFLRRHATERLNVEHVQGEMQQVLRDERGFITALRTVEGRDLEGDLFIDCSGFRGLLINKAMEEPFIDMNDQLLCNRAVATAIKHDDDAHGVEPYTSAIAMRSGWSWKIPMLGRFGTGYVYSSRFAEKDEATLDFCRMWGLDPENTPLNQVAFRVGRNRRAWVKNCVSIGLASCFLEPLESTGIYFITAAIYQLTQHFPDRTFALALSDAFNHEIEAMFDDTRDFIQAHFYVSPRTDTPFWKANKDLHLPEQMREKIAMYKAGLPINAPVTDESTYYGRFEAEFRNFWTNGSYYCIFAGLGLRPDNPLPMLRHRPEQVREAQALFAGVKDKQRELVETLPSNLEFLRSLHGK

[2] = molecular target: T2, AbeH (uncultured bacterium, UniProt F6LWA5); type: biochemical, uncultured soil actinomycetes; conditions: NaCl or NaBr reaction
T2 sequence (F6LWA5 entry or part of it): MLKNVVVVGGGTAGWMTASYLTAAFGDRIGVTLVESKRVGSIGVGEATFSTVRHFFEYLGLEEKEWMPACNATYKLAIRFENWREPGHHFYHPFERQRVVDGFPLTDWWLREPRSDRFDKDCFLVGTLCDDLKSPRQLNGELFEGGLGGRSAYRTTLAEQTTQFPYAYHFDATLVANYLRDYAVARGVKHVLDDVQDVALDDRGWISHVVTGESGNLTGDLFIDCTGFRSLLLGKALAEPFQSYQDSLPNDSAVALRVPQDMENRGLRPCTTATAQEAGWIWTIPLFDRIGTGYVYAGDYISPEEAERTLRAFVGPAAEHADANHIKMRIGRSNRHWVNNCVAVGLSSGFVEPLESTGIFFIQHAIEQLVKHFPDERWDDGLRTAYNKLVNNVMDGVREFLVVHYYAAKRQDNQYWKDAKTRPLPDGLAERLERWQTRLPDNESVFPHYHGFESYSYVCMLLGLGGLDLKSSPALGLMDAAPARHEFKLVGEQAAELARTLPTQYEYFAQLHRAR
Description: (§1) To test the ability of BorH and AbeH to chlorinate and brominate other substrates, 100 μL reactions containing 5 μM AbeH or BorH, 10 μM of holo-AbeF or holo-BorF, 100 mM NaCl or NaBr, 2.5 mM NADH, and 0.5 mM substrate in HEPES pH 8.0 were incubated for 12 h at 37 °C with shaking at 230 rpm. The reactions were stopped by heating at 95 °C for 5 min and centrifuged at 12,000g for 5 min. Clarified reaction mixtures were analyzed using RP-HPLC on a Kromasil C18 column (100 Å pore size, 4.6 × 250 mm) mounted on a Waters 2695 HPLC. The gradient was as follows: 0–7.5 min, 5–50% B; 7.5–14 min, 50–100%; 14–25 min, 100% B; 25–40 min 100–5% B with flow rate 0.6 mL/min (Solvent A = H2O/CH3CN 95:5, 0.1% TFA; Solvent B = H2O/CH3CN 5/95, 0.1% TFA). Substrates and products were detected by monitoring UV absorbance at the λmax for each substrate. Product peak fractions were analyzed using ESI-MS on a SYNAPT HDMS mass spectrometer in positive ion mode with leucine enkephalin internal standard.

[3] = molecular target: T1, BorH; experiment: In vitro halogenation of aromatic substrates by BorH (with BorF, NADH, NaCl or NaBr; RP-HPLC); type: biochemical, uncultured soil actinomycetes; conditions: for BorH bromination compared with chlorination of the substrate, in words: same reaction conditions; for Halogenation (chlorination/bromination) of the substrate by BorH, in words: NaCl or NaBr reaction
Description: as §1

[4] = molecular target: AbeF; conditions: read-out: KD, flavin binding to AbeF; cited from earlier work
[5] = molecular target: BorF; conditions: read-out: KD, flavin binding to BorF; cited from earlier work
[6] = molecular target: T1, BorH; experiment: Isothermal titration calorimetry, ligand into BorH; type: binding, uncultured soil actinomycetes
Description: (§2) Solutions of AbeH, BorH, FAD (Chem-Implex), and Trp (Acros Organics) were prepared in the same buffer and degassed under vacuum at 30 °C for 20 min before loading in the syringe or cell. To analyze formation of binary complexes, AbeH or BorH was placed inside the cell, and ligand (FAD or Trp) was injected. For ternary complex titration, one ligand was preincubated with the macromolecule for 30 min at 30 °C to form binary complexes of AbeH/FAD, AbeH/Trp, BorH/FAD, and BorH/Trp before titrating with the second ligand. To test FADH2 binding to AbeH and BorH, FAD was reduced to FADH2 using sodium dithionite and stored under N2. Formation of FADH2 by sodium dithionite was verified using absorbance and fluorescence spectrophotometry.
(§3) ITC experiments were performed with reference power set to 10 μcal/s and Milli-Q water in the reference cell. All experiments were done with a pretitration delay of 20 min, a 5 min interval between injections, and a filter period of 2 s in high feedback gain mode. All experiments were performed at 310 rpm to mix the components in cell and titrant. All other VP-ITC instrumental parameters were set to default settings. Heats of dilution for all titrants were measured by titrating ligand into buffer for binary complex titrations, and by titrating ligand into a solution containing the other ligand but no protein for ternary complex titration.
(§4) Titrations were analyzed by manually integrating each injection, subtracting the heat of dilution, and carrying out nonlinear least-squares fit of the calorimetric binding data to a one-site model using Origin 7.0 (Origin Lab). Trp binding experiments were subtracted by point-by-point heat of dilution, and FAD and FADH2 binding experiments were subtracted using the mean heat of the last three injections. For the Trp binding data, n was fixed to 1 based on expected stoichiometry of 1:1 based on FDH crystal structures and as proposed for lower c-value titrations in the literature.[23],[25],[82] The other parameters were not constrained during fitting.

[7] = molecular target: T2, AbeH; experiment: Isothermal titration calorimetry, ligand into AbeH; type: binding, uncultured soil actinomycetes
Description: as §2, with “ITC experiments were performed using a VP-ITC isothermal titration calorimeter (MicroCal) in 20 mM HEPES pH 7.5, 350 mM NaCl, 1 mM ethylenediamine tetraacetic acid (EDTA) and 15% (v/v) glycerol. Solutions” for “Solutions”
as §3
1.2 mM FAD (2 μL/1 and 5 μL/19 injections) into 18 μM AbeH (Figure 4A)
0.12 mM FADH2 (2 μL/1 and 15 μL/19 injections) into 7 μM AbeH in the presence of sodium dithionite (Figure 4B)
1.4 mM Trp (3 μL/1 and 10 μL/29 injections) into 43 μM AbeH (Figure S7)
16 mM Trp (2 μL/1 and 10 μL/29 injections) into 18 μM AbeH (Figure 5A)
as §4

SMILES	Halogenation of the substrate by BorH, in words [1]	Halogenation (chlorination/bromination) of the substrate by AbeH, in words [2]	BorH bromination compared with chlorination of the substrate, in words [3]	Halogenation (chlorination/bromination) of the substrate by BorH, in words [3]	other results
O=C(O)CCc1c[nH]c2ccccc12 [3-indolepropionic acid]	halogenate	halogenated	–	–	–
N#Cc1ccc2[nH]ccc2c1 [5-cyanoindole]	–	did not halogenate; also recorded: No activity	higher rate of bromination than chlorination	–	–
N[C@@H](Cc1c[nH]c2ccc(O)cc12)C(=O)O [5-hydroxytryptophan]	–	did not halogenate; also recorded: No activity	–	–	–
Nc1ccc2c(c1)NC(=O)CO2 [6-amino-2h-1,4-benzoxazin-3(4H)-one, 6-amino-2H-1,4-benzoxazin-3(4H)-one]	–	did not halogenate; also recorded: No activity	higher rate of bromination than chlorination	could halogenate	–
Nc1ccc2ncccc2c1 [6-aminoquinoline]	halogenate	chlorinated and brominated	higher rate of bromination than chlorination	halogenated	–
Nc1ccc2cccnc2c1 [7-aminoquinoline]	–	chlorinated and brominated	–	could not halogenate; also recorded: No activity	–
NC(=O)c1ccccc1N [Anthranilamide]	halogenate	halogenated	–	halogenated	–
Cc1cc2c(cc1C)N(C[C@H](O)[C@H](O)[C@H](O)COP(=O)(O)OP(=O)(O)OC[C@H]1O[C@@H](n3cnc4c(N)ncnc43)[C@H](O)[C@@H]1O)c1[nH]c(=O)[nH]c(=O)c1N2 [FADH2]	–	–	–	–	Kd [4]: 1.5 µM; Kd [5]: 0.8 µM; Kd ([6]; ITC, read-out: KD, binding to BorH, ITC): 0.2 µM and 0.21 µM; -TDS (-TΔS, ITC, Table S3) ([6]; cell BorH): 15 kcal/mol; DG (ΔG, ITC, Table S3) ([6]; cell BorH): -9.2 kcal/mol; DH (ΔH, ITC, Table S3) ([6]; cell BorH): -24.2 ± 1.6 kcal/mol; n (ITC, Table S3) ([6]; cell BorH): 0.97 ± 0.05; Kd ([7]; ITC, read-out: KD, binding to AbeH, ITC): 0.1 µM and 0.12 µM; -TDS (-TΔS, ITC, Table S3) ([7]; cell AbeH): 5.7 kcal/mol; DG (ΔG, ITC, Table S3) ([7]; cell AbeH): -9.6 kcal/mol; DH (ΔH, ITC, Table S3) ([7]; cell AbeH): -15.3 ± 0.7 kcal/mol; n (ITC, Table S3) ([7]; cell AbeH): 0.82 ± 0.03
c1ccc2[nH]ccc2c1 [Indole]	–	efficiently chlorinated and brominated	higher rate of bromination than chlorination	–	–
NCCc1c[nH]c2ccc(O)cc12 [Serotonin]	–	did not halogenate; also recorded: No activity	–	–	–
NCCc1c[nH]c2ccccc12 [Tryptamine]	halogenate	No activity	–	–	–
Nc1ccccc1C(=O)CC(N)C(=O)O (centres unmarked) [kynurenine]	halogenate	–	–	–	–
